In US12018059B2, “Human amylin analog polypeptides and methods of use” (Intarcia Therapeutics, Inc., priority 2018, dated 2024):
Converted amounts (≈) assume the structure as drawn. Where two headings read alike, the source gives them in different places. Starred links: 1 amine or outer side, 2 acyl side, 3 side chain; linkers in the order of their positions; H or OH if unused. Positions of bridges follow the written chain, without caps; N, C: chain ends. Non-standard residues stand in square brackets, D forms with d. Residues, ends and D or L forms follow the SMILES beside them. Groups on a side chain read outwards from the residue. *: point of attachment. C18 diacid = O=C(O)CCCCCCCCCCCCCCCCC(=O)*; γGlu = O=C(O)[C@H](CCC(=O)[*:2])N[*:1]; Stearoyl = CCCCCCCCCCCCCCCCCC(=O)*; Palmitoyl = CCCCCCCCCCCCCCCC(=O)*

Tests used:
[1] = 27-day weight loss in combination with exenatide; conditions: LE DIO rats
in vivo = assay: in vivo; set-up: species or system Sprague-Dawley rats; conditions: male, Sprague-Dawley, rat, iv, 0.033 mg/kg
How it was run: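 Peptide plasma levels measured by UPLC-MS/MS (C18, product-ion monitoring) after protein precipitation or WCX SPE, calibrated in K2EDTA/protease-inhibitor rat plasma. Dosing in non-fasted male Sprague-Dawley rats (n=3): 0.033 mg/kg over 1 h by IV or SC infusion, or 0.3 mg/kg SC bolus; sampling up to 48 h.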

[2] = 13-day dose-response body weight loss, continuous SC infusion by osmotic mini-pump; conditions: 13 days, LE DIO rats; for DIO Dose Response 13 d weight loss, ΔΔ % weight loss: from baseline and vehicle control
[3] = Solubility of amylin analog polypeptides (visual inspection, room temperature); format: physicochemical
Protocol: The analog polypeptides described herein were tested for solubility in saline 20% DMSO in water (i.e., bioassay buffer) or in aqueous (DI water) at room temperature. Samples were visually inspected for clarity of the sample, any appearance of turbidity or haziness.

[4] = Acute food intake inhibition after SC bolus injection (BioDAQ); conditions: Long Evans rats on 45% high fat diet
[5] = in vivo; cited from earlier work
[6] = 27-day HbA1c change in combination with exenatide; conditions: dose 30 mcg/kg + Exenatide 10 mcg/kg, ZDF rats
[7] = in serum; cited from earlier work
[8] = dose 3 mcg/kg + Exenatide 10 mcg/kg
[9] = dose 10 mcg/kg + Exenatide 10 mcg/kg
[10] = dose 30 mcg/kg + Exenatide 10 mcg/kg

| Molecule | DIO Combination + Exenatide 27 d weight loss, ΔΔ % weight loss ([1]; dose 100 mcg/kg + Exenatide 10 mcg/kg) [%] | DIO Combination + Exenatide 27 d weight loss, ΔΔ % weight loss ([1]; dose 300 mcg/kg + Exenatide 10 mcg/kg) [%] | DIO Combination + Exenatide 27 d weight loss, ΔΔ % weight loss ([1]; dose 600 mcg/kg + Exenatide 10 mcg/kg) [%] | Vd (in vivo) [L/kg] | clearance (in vivo) [L/h/kg] | half-life (in vivo) [h] | DIO Dose Response 13 d weight loss, ED50 [2] [mg/kg] | DIO Dose Response 13 d weight loss, ΔΔ % weight loss [2] [%] | solubility ([3]; deionised water, TFA salt, DI H2O, room temperature, read-out: Solubility) [mg/mL] | Acute Food Intake % Inhibition vs vehicle ([4]; 0-24 hr after acute SC dosing) [%] | Acute Food Intake % Inhibition vs vehicle ([4]; 25-48 hr after acute SC dosing) [%] | Acute Food Intake % Inhibition vs vehicle ([4]; 49-72 hr after acute SC dosing) [%] | half-life [5] | DIO Combination + Exenatide 27 d weight loss, ΔΔ % weight loss [1, 8] [%] | DIO Combination + Exenatide 27 d weight loss, ΔΔ % weight loss [1, 9] [%] | DIO Combination + Exenatide 27 d weight loss, ΔΔ % weight loss [1, 10] [%] | solubility ([3]; Solubility) [mg/mL] | ZDF Combination + Exenatide 27 d HbA1c (%), ΔΔ % HbA1c [6] [%] | half-life [7] |
| --- | --- | --- | --- | --- | --- | --- | --- | --- | --- | --- | --- | --- | --- | --- | --- | --- | --- | --- | --- |
| CC[C@H](C)[C@H](NC(=O)[C@@H]1CCCN1C(=O)CNC(=O)[C@H](Cc1ccccc1)NC(=O)[C@H](CC(N)=O)NC(=O)[C@H](CC(N)=O)NC(=O)[C@H](CO)NC(=O)[C@H](CO)NC(=O)[C@H](CCCCN)NC(=O)[C@H](Cc1c[nH]cn1)NC(=O)[C@H](CC(C)C)NC(=O)[C@H](CCC(=O)O)NC(=O)[C@H](CC(N)=O)NC(=O)[C@H](C)NC(=O)[C@H](CC(C)C)NC(=O)[C@H](CCCNC(=N)N)NC(=O)[C@H](CCC(N)=O)NC(=O)[C@@H](NC(=O)[C@H](C)NC(=O)[C@@H]1CSSC[C@H](NC(=O)[C@@H](N)CCCCNC(=O)CC[C@H](NC(=O)CC[C@H](NC(=O)CCCCCCCCCCCCCCCCC(=O)O)C(=O)O)C(=O)O)C(=O)N[C@@H](CC(N)=O)C(=O)N[C@@H]([C@@H](C)O)C(=O)N[C@@H](CO)C(=O)N[C@@H]([C@@H](C)O)C(=O)N1)[C@@H](C)O)C(=O)N[C@@H](CC(C)C)C(=O)N1CCC[C@H]1C(=O)N1CCC[C@H]1C(=O)N[C@H](C(=O)N[C@@H](CCCCN)C(=O)N[C@H](C(=O)NCC(=O)N[C@@H](CO)C(=O)N[C@@H](CCC(=O)O)C(=O)N[C@H](C(=O)N[C@@H](Cc1ccc(O)cc1)C(N)=O)[C@@H](C)O)C(C)C)[C@@H](C)O [Compound A65] (H-K([γGlu-γGlu-C18 diacid])CNTSTCATQRLANELHKSSNNFGPILPPTKVGSETY-NH2; disulfide 2-7; N-terminus assumed) | 8 | 9 | 12 | 0.175 | 0.00606 | 22.6 | 0.07 | 3 | 138 | 50 | 25 | 14 | – | – | – | – | – | – | – |
| davalintide | – | – | – | – | – | – | – | – | – | – | – | – | about 26 minutes | – | – | – | – | – | – |
| CCCCCCCCCCCCCCCCCC(=O)N[C@@H](CCC(=O)N[C@@H](CCC(=O)N[C@@H](CCC(=O)NCCCC[C@@H](NC(=O)[C@H](CCC(=O)O)NC(=O)[C@H](CC(N)=O)NC(=O)[C@H](C)NC(=O)[C@H](CC(C)C)NC(=O)[C@H](CCCNC(=N)N)NC(=O)[C@H](CCC(N)=O)NC(=O)[C@@H](NC(=O)[C@H](C)NC(=O)[C@@H]1CSSC[C@H](NC(=O)[C@@H](N)CO)C(=O)N[C@@H](CC(N)=O)C(=O)N[C@@H]([C@@H](C)O)C(=O)N[C@@H](CO)C(=O)N[C@@H]([C@@H](C)O)C(=O)N1)[C@@H](C)O)C(=O)N[C@@H](Cc1c[nH]cn1)C(=O)N[C@@H](CCCCN)C(=O)N[C@@H](CO)C(=O)N[C@@H](CO)C(=O)N[C@@H](CC(N)=O)C(=O)N[C@@H](CC(N)=O)C(=O)N[C@@H](Cc1ccccc1)C(=O)NCC(=O)N1CCC[C@H]1C(=O)N[C@H](C(=O)N[C@@H](CC(C)C)C(=O)N1CCC[C@H]1C(=O)N1CCC[C@H]1C(=O)N[C@H](C(=O)N[C@@H](CCCCN)C(=O)N[C@H](C(=O)NCC(=O)N[C@@H](CO)C(=O)N[C@@H](CCC(=O)O)C(=O)N[C@H](C(=O)N[C@@H](Cc1ccc(O)cc1)C(N)=O)[C@@H](C)O)C(C)C)[C@@H](C)O)[C@@H](C)CC)C(=O)O)C(=O)O)C(=O)O [Compound A13] (H-SCNTSTCATQRLANE[dK]([γGlu-γGlu-γGlu-Stearoyl])HKSSNNFGPILPPTKVGSETY-NH2; disulfide 2-7; N-terminus assumed) | – | – | – | 0.398 | 0.0423 | 7.53 | 0.055 | 5 | – | 67 | 37 | 6 | – | 9 | 12 | 12 | 63 (≈ 13.6 mM) | – | – |
| CCCCCCCCCCCCCCCC(=O)N[C@@H](CCC(=O)N[C@@H](CCC(=O)NCCCC[C@@H](NC(=O)[C@H](CCC(=O)O)NC(=O)[C@H](CC(N)=O)NC(=O)[C@H](C)NC(=O)[C@H](CC(C)C)NC(=O)[C@H](CCCNC(=N)N)NC(=O)[C@H](CCC(N)=O)NC(=O)[C@@H](NC(=O)[C@H](C)NC(=O)[C@@H]1CSSC[C@H](NC(=O)[C@@H](N)CO)C(=O)N[C@@H](CC(N)=O)C(=O)N[C@@H]([C@@H](C)O)C(=O)N[C@@H](CO)C(=O)N[C@@H]([C@@H](C)O)C(=O)N1)[C@@H](C)O)C(=O)N[C@@H](Cc1c[nH]cn1)C(=O)N[C@@H](CCCCN)C(=O)N[C@@H](CO)C(=O)N[C@@H](CO)C(=O)N[C@@H](CC(N)=O)C(=O)N[C@@H](CC(N)=O)C(=O)N[C@@H](Cc1ccccc1)C(=O)NCC(=O)N1CCC[C@H]1C(=O)N[C@H](C(=O)N[C@@H](CC(C)C)C(=O)N1CCC[C@H]1C(=O)N1CCC[C@H]1C(=O)N[C@H](C(=O)N[C@@H](CCCCN)C(=O)N[C@H](C(=O)NCC(=O)N[C@@H](CO)C(=O)N[C@@H](CCC(=O)O)C(=O)N[C@H](C(=O)N[C@@H](Cc1ccc(O)cc1)C(N)=O)[C@@H](C)O)C(C)C)[C@@H](C)O)[C@@H](C)CC)C(=O)O)C(=O)O [Compound A27] (H-SCNTSTCATQRLANE[dK]([γGlu-γGlu-Palmitoyl])HKSSNNFGPILPPTKVGSETY-NH2; disulfide 2-7; N-terminus assumed) | – | – | – | 0.174 | 0.0287 | 5.16 | 0.036 | 5 | – | 86 | 57 | 13 | – | 9 | 12 | 17 | 80.6 (≈ 18 mM) | 3.3 | – |
| human amylin (KCNTATCATQRLANFLVHSSNNFGAILSSTNVGSNTY) [37-residue polypeptide hormone co-secreted with insulin from pancreatic β-cells] | – | – | – | – | – | – | – | – | – | – | – | – | – | – | – | – | – | – | about 13 minutes |
